From patent US8987276B2, “Substituted triazolyl piperazine and triazolyl piperidine derivatives as gamma secretase modulators” (Janssen Pharmaceuticals, Inc., priority 2011, dated 2015)
pIC50: −log10 of the molar value. Counter-ions that a name gives are not always drawn.

How the values were obtained:
[1] = test system: Aβtotal; experiment: Screening for γ-secretase-modulating activity: Aβtotal in supernatant of SKNBE2 cells carrying APP 695-wild type (Alphalisa); type: cell-based; settings: Homo sapiens, overnight incubation, cell supernatant
Method: (§1) Screening was carried out using SKNBE2 cells carrying the APP 695-wild type, grown in Dulbecco's Modified Eagle's Medium/Nutrient mixture F-12 (DMEM/NUT-mix F-12) (HAM) provided by Invitrogen (cat no. 10371-029) containing 5% Serum/Fe supplemented with 1% non-essential amino acids, 1-glutamine 2 mM, Hepes 15 mM, penicillin 50 U/ml (units/ml) en streptomycin 50 µg/ml. Cells were grown to near confluency.
(§2) The screening was performed using a modification of the assay as described in Citron et al (1997) Nature Medicine 3: 67. Briefly, cells were plated in a 384-well plate at 10^4 cells/well in Ultraculture (Lonza, BE12-725F) supplemented with 1% glutamine (Invitrogen, 25030-024), 1% non-essential amino acid (NEAA), penicillin 50 U/ml en streptomycin […] in the presence of test compound at different test concentrations. The cell/compound mixture was incubated overnight at 37° C., 5% CO2. The next day the media were assayed by two sandwich immuno-assays, for Aβ42 and Aβtotal.
(§3) Aβtotal and Aβ42 concentrations were quantified in the cell supernatant using the Aphalisa technology (Perkin Elmer). Alphalisa is a sandwich assay using biotinylated antibody attached to streptavidin coated donorbeads and antibody conjugated to acceptor beads. In the presence of antigen, the beads come into close proximity. The excitation of the donor beads provokes the release of singlet oxygen molecules that trigger a cascade of energy transfer in the acceptor beads, resulting in light emission.
(§4) To quantify the amount of Aβ42 in the cell supernatant, monoclonal antibody specific to the C-terminus of Aβ42 (JRF/cAB42/26) was coupled to the receptor beads and biotinylated antibody specific to the N-terminus of Aβ (JRF/ABN/25) was used to react with the donor beads. T quantify the amount of Aβtotal in the cell supernatant, monoclonal antibody specifc to the N-terminus of Aβ (JRF/AβN/25) was coupled to the receptor beads and biotinylated antibody specific to the mid region of Aβ (biotinylated 4G8) was used to react with the donor beads.
(§5) To obtain the values reported in Table 3, the data are calculated as percentage of the maximum amount of amyloid Beta 42 measured in the absence of the test compound. The sigmoidal dose response curves were analyzed using non-linear regression analysis with percentage of the control plotted against the log concentration of the compound. A 4-parameter equation was used to determine the IC50.

[2] = test system: Aβ42; experiment: Screening for γ-secretase-modulating activity: Aβ42 in supernatant of SKNBE2 cells carrying APP 695-wild type (Alphalisa); type: cell-based; settings: Homo sapiens, overnight incubation, cell supernatant
Method: as §1, §2, §3, §4, §5

[3] = test system: Aβtotal; experiment: In vivo efficacy: brain soluble Aβtotal in non-transgenic animals (ELISA); design: species or system mouse; settings: dose 30 mg/kg oral dosing; brain soluble fraction, 4 h after dose; untreated animals (Ctrl) set at 100
Description: (§6) To determine whether acute administration of an Aβ42 lowering agent would reduce Aβ42 levels in vivo, non-transgenic rodents, e.g. mice or rats were used. Animals treated with the Aβ42 lowering agent were examined and compared to those untreated or treated with vehicle and brain levels of soluble Aβ42 and total Aβ were quantitated by standard techniques, for example, using ELISA. Treatment periods varied from hours (h) to days and were adjusted based on the results of the Aβ42 lowering once a time course of onset of effect could be established.
(§7) A typical protocol for measuring Aβ42 lowering in vivo is shown but it is only one of many variations that could be used to optimize the levels of detectable A3. For example, Aβ42 lowering compounds were formulated in 20% of Captisol® (a sulfobutyl ether of β-cyclodextrin) in water or 20% hydroxypropyl 0 cyclodextrin. The Aβ42 lowering agents were administered as a single oral dose or by any acceptable route of administration to overnight fasted animals. After 4 h, the animals were sacrificed and Aβ42 levels were analysed.
(§8) Blood was collected by decapitation and exsanguinations in EDTA-treated collection tubes. […] The left hemisphere was stored at −18° C. for quantitative analysis of test compound levels. […]
(§9) Mouse brains from non-transgenic animals were resuspended in 8 volumes of 0.4% DEA (diethylamine)/50 mM NaCl containing protease inhibitors (Roche-11873580001 or 04693159001) per gram of tissue, e.g. for 0.158 g brain, add 1.264 ml of 0.4% DEA. […] Nine parts of supernatant were neutralized with 1 part 0.5 M Tris-HCl pH 6.8 and used to quantify Aβtotal and Aβ42.
(§10) To quantify the amount of Aβtotal and Aβ42 in the soluble fraction of the brain homogenates, Enzyme-Linked-Immunosorbent-Assays were used. […] Following this incubation and subsequent wash steps the ELISA for Aβ42 quantification was finished by addition of Quanta Blu fluorogenic peroxidase substrate according to the manufacturer's instructions (Pierce Corp., Rockford, Il). A reading was performed after 10 to 15 min (excitation 320 nm/emission 420 nm). […]

[4] = test system: Aβ42; experiment: In vivo efficacy: brain soluble Aβ42 lowering in non-transgenic animals (ELISA); design: species or system mouse; settings: dose 30 mg/kg oral dosing; brain soluble fraction, 4 h after dose; untreated animals (Ctrl) set at 100
Description: as §6, §7, §8, §9, §10

Row | Compound | pIC50 [1] | melting point | pIC50 [2] | Aβtotal (% vs Ctrl)_Mean [3] | Aβ42 (% vs Ctrl)_Mean [4]
1 | Cn1nc(N2CCN(Cc3ccncc3)CC2)nc1Nc1cc(C(F)(F)F)ccc1F [Compound 12, N-[2-fluoro-5-(trifluoromethyl)phenyl]-1-methyl-3-[4-(4-pyridinylmethyl)-1-piperazinyl]-1H-1,2,4-triazol-5-amine] | < 5.00 | 161.4 °C | < 5.00 |  | 
2 | Cc1cc(OC2CCN(c3nc(Nc4cc(C(F)(F)F)ccc4F)n(C)n3)CC2)ncn1 [Compound 8, N-[2-fluoro-5-(trifluoromethyl)phenyl]-1-methyl-3-[4-[(6-methyl-4-pyrimidinyl)oxy]-1-piperidinyl]-1H-1,2,4-triazol-5-amine] | < 5.00 | 158 °C | 6.02 |  | 
3 | COc1ccc(N2CCN(c3nc(Nc4cc(C(F)(F)F)ccc4F)n(C)n3)CC2)cc1 [Compound 9, N-[2-fluoro-5-(trifluoromethyl)phenyl]-3-[4-(4-methoxyphenyl)-1-piperazinyl]-1-methyl-1H-1,2,4-triazol-5-amine] | < 5.00 | 145.4 °C | 6.25 |  | 
4 | COc1ccc(N2CCN(c3nc(-c4ccc(F)cc4)n(C)n3)CC2)cc1 [Compound 16, 1-[5-(4-fluorophenyl)-1-methyl-1H-1,2,4-triazol-3-yl]-4-(4-methoxyphenyl)-piperazine] | < 5.00 | 191.6 °C | 5.39 |  | 
5 | Cc1cc(OC2CCN(c3nc(Nc4cc(C(F)(F)F)ccc4F)n(C)n3)CC2)ccn1 [Compound 15, N-[2-fluoro-5-(trifluoromethyl)phenyl]-1-methyl-3-[4-[(2-methyl-4-pyridinyl)oxy]-1-piperidinyl]-1H-1,2,4-triazol-5-amine] | < 5.00 | 177.4 °C | 6.60 |  | 
6 | Cn1nc(N2CCN(c3ccncc3)CC2)nc1Nc1cc(C(F)(F)F)ccc1F [Compound 10, N-[2-fluoro-5-(trifluoromethyl)phenyl]-1-methyl-3-[4-(4-pyridinyl)-1-piperazinyl]-1H-1,2,4-triazol-5-amine] | < 5.00 | 261.8 °C | 5.31 |  | 
7 | Cn1nc(N2CCC(Oc3ccncc3)CC2)nc1Nc1cc(C(F)(F)F)ccc1F [Compound 7, N-[2-fluoro-5-(trifluoromethyl)phenyl]-1-methyl-3-[4-(4-pyridinyloxy)-1-piperidinyl]-1H-1,2,4-triazol-5-amine] | < 5.00 |  | 6.14 |  | 
8 | Cc1cc(CC2CCN(c3nc(Nc4cc(C(F)(F)F)ccc4F)n(C)n3)CC2)ccn1 [Compound 11, N-[2-fluoro-5-(trifluoromethyl)phenyl]-1-methyl-3-[4-[(2-methyl-4-pyridinyl)methyl]-1-piperidinyl]-1H-1,2,4-triazol-5-amine.HCl.H2O] | < 5.00 |  | 5.16 |  | 

Continued, in another order:

Row | pIC50 [1] | melting point | pIC50 [2] | Compound | Aβtotal (% vs Ctrl)_Mean [3] | Aβ42 (% vs Ctrl)_Mean [4]
9 | < 5.00 |  | 7.30 | COc1ccc(N2CCN(c3nc(Nc4cccc(F)c4C(F)(F)F)n(C)n3)CC2(C)C)cc1 [Compound 3, N-[3-fluoro-2-(trifluoromethyl)phenyl]-3-[4-(4-methoxyphenyl)-3,3-dimethyl-1-piperazinyl]-1-methyl-1H-1,2,4-triazol-5-amine] |  | 
10 | < 5.00 |  | 6.96 | COc1ccc(N2CCN(c3nc(Nc4cc(C(F)(F)F)ccc4F)n(C)n3)CC2(C)C)cc1 [Compound 14, N-[2-fluoro-5-(trifluoromethyl)phenyl]-3-[4-(4-methoxyphenyl)-3,3-dimethyl-1-piperazinyl]-1-methyl-1H-1,2,4-triazol-5-amine] | 111 % vs Ctrl | 78 % vs Ctrl
11 | < 5.00 |  | 7.15 | COc1ccc(N2CCN(c3nc(Nc4cccc(OC(F)(F)F)c4)n(C)n3)CC2(C)C)cc1 [Compound 4, 3-[4-(4-methoxyphenyl)-3,3-dimethyl-1-piperazinyl]-1-methyl-N-[3-(trifluoromethoxy)phenyl]-1H-1,2,4-triazol-5-amine.HCl] |  | 
12 | < 5.00 |  | 7.30 | COc1ccc(N2CCN(c3nc(Nc4ccc(F)cc4C)n(C)n3)CC2(C)C)cc1 [Compound 6, N-(4-fluoro-2-methylphenyl)-3-[4-(4-methoxyphenyl)-3,3-dimethyl-1-piperazinyl]-1-methyl-1H-1,2,4-triazol-5-amine.1.2HCl. 1.5H2O] | 109 % vs Ctrl | 45 % vs Ctrl
13 | < 5.00 |  | 7.05 | COc1ccc(N2CCN(c3nc(Nc4ccccc4C(F)(F)F)n(C)n3)CC2(C)C)cc1 [Compound 2, 3-[4-(4-methoxyphenyl)-3,3-dimethyl-1-piperazinyl]-1-methyl-N-[2-(trifluoromethyl)phenyl]-1H-1,2,4-triazol-5-amine] |  | 
14 | < 5.00 |  | 6.85 | COc1ccc(N2CCN(c3nc(Nc4cc(F)cc(C(F)(F)F)c4)n(C)n3)CC2(C)C)cc1 [Compound 5, N-[3-fluoro-5-(trifluoromethyl)phenyl]-3-[4-(4-methoxyphenyl)-3,3-dimethyl-1-piperazinyl]-1-methyl-1H-1,2,4-triazol-5-amine.0.8HCl] |  | 
15 | < 5.00 | 156.8 °C | 7.30 | COc1ccc(N2CCN(c3nc(Nc4ccccc4C)n(C)n3)CC2(C)C)cc1 [Compound 1, 3-[4-(4-methoxyphenyl)-3,3-dimethyl-1-piperazinyl]-1-methyl-N-(2-methylphenyl)-1H-1,2,4-triazol-5-amine] | 107 % vs Ctrl | 50 % vs Ctrl
